According to patent US20220235043A1, “SUBSTITUTED SULFONAMIDE PYRROLOPYRIDINES AS JAK INHIBITORS” (ACLARIS THERAPEUTICS, INC., priority 2019, published 2022):

Tests used:
[1] = target: T1, JAK2 (Homo sapiens, UniProt O60674); test: JAK2 enzyme activity assay (Thermo Fisher Selectscreen, Z-lyte); format: biochemical; settings: read-out: JAK2 Inhibition IC50
T1 construct: purchased Thermo Fisher Scientific (SelectScreen service)
Method in brief: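 Z-lyte FRET kinase format: 0.12-0.5 ng JAK2 with 2 μM Tyr 06 peptide in HEPES pH 7.5, 10 mM MgCl2, 1 h reaction, then development reagent. Compounds were run as 11-point dose-response, 2% DMSO vehicle. IC50 came from 4-parameter logistic fit of emission ratio.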

[2] = test system: IL-2 stimulated STAT5 phosphorylation on Tyr694 (JAK1/3); test: JAK1/3 cellular target modulation: IL-2 stimulated phospho-STAT5 in human PBMC; format: cell-based; settings: IL-2 25 ng/ml, read-out: IL2-STAT5 IC50
Method in brief: (§1)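 Thawed human PBMC (200,000/well) preincubated with compound 1 h at 37°C, then stimulated with IL-12 1.7 ng/ml for 25 min, IFNγ 10 ng/ml for 10 min, or IL-2 25 ng/ml for 5 min. Lysate phospho-STAT4 Tyr693 and phospho-STAT5 Tyr694 read by MSD; phospho-STAT1 Tyr701 by sandwich ELISA.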

[3] = test system: IFNγ stimulated STAT1 phosphorylation on Tyr701 (JAK1/2); test: JAK1/2 cellular target modulation: IFNγ stimulated phospho-STAT1 in human PBMC; format: cell-based; settings: IFNγ 10 ng/ml, read-out: Infγ-STAT1 IC50
Method in brief: as §1

[4] = GI Exposure PK in Mice; format: in vivo; settings: mouse, male BalbC mice, oral dose of 5 mg/kg
Procedure: The test compound, Example 75, was wetted with ˜0.025% of Tween-20 and triturated in a mortar and pestle, then slowly 0.5% of methyl cellulose was added to make up the final volume to 7.25 mL. The BalbC test animals were subjected to anesthesia induced with a mixture of 5% isoflurane and 0.8-1.5 L/min O2 gas flow. The formulated test compound was then dosed via oral gavage. At various time points (0.5, 1, 2, 4, 6 and 8 h) blood samples (˜100 μL) were collected from portal vein (pre-hepatic) followed by cardiac puncture (circulating) into tubes containing 2% w/v aqueous K2 EDTA solution as per time points. Post blood sampling, the gastro intestine (GI) tissues were collected from the mice at the same time points. The GI tissue was dissected into different parts as duodenum, jejunum, ileum and colon. The separated tissues were washed by flushing with PBS via oral gavage needle to remove GI content. Post collection all the tissues were blotted, weighed and homogenized with PBS buffer (pH 7.4). The blood samples were immediately placed on ice and centrifuged within 30 min at 4° C. for 5 min at 8,000 rpm to obtain plasma. Plasma was transferred by pipettes to pre-labelled centrifuge tubes and immediately transferred to −80° C. until bioanalysis. Tissue samples were placed in pre-labelled container and all samples were kept in −80° C. until homogenized. The homogenate was stored immediately in −80° C. until bioanalysis was conducted. Study samples were thawed to room temperature and 50 μL of sample was aliquoted into pre-labeled vials. To these was added 400 μL of 100% acetonitrile containing an IS (100 ng/mL; warfarin, tolbutamide and loperamide). The vials were mixed well, vortexed for 5 min, followed by centrifugation for 5 min at 14000 rpm at 4° C. The supernatant was separated and same was injected on LC-MS/MS. Plasma and GI tissue levels of test compound were determined by LC-MS analysis using a standard curve in the text matrix. Individual concentration-time data were analyzed using Phoenix WinNonlin (Version 8.1) by the non-compartmental analysis (NCA) method.

[5] = portal vein plasma, Portal plasma

T1 sequence (O60674 whole entry): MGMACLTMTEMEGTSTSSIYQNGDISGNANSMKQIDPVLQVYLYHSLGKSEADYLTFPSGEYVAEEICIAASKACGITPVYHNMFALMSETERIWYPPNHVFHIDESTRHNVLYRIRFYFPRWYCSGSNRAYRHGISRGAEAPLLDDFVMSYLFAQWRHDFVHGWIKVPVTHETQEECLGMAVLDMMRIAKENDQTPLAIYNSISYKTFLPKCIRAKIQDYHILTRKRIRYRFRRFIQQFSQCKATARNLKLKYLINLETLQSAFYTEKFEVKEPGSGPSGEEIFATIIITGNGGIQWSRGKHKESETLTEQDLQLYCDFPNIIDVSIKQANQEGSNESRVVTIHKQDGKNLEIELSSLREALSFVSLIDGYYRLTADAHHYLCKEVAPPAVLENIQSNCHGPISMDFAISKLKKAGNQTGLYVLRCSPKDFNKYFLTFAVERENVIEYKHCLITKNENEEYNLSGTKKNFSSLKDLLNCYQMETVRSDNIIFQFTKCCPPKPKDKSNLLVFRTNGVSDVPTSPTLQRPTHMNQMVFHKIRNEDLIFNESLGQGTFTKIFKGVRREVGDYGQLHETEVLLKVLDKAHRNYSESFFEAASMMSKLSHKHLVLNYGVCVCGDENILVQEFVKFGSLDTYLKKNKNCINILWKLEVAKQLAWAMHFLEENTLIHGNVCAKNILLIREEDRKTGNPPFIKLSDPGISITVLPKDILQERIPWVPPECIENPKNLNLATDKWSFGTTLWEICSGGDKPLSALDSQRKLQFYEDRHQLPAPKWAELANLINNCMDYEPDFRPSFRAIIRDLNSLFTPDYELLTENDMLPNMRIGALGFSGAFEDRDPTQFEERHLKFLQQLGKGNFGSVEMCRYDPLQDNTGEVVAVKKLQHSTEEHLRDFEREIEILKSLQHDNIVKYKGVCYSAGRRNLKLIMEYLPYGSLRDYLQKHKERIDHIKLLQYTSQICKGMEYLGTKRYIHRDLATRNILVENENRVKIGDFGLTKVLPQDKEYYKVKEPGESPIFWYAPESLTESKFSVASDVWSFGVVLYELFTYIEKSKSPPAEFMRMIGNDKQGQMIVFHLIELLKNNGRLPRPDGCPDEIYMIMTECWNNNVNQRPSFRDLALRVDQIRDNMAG

Compound: Cc1nnc(-c2cnc3[nH]ccc3c2N[C@H]2C[C@@H](NS(=O)(=O)c3cccc(C#N)c3)C2)s1 [Example 75, 3-cyano-N-((1s,3s)-3-((5-(5-methyl-1,3,4-thiadiazol-2-yl)-1H-pyrrolo[2,3-b]pyridin-4-yl)amino)cyclobutyl)benzenesulfonamide]
- IC50 [1]: ≤ 10 nM
- IC50 [2]: ≤ 100 nM
- IC50 [3]: 100 to 1000 nM
- AUC [4, 5]: 247 ng·h/mL
- Tmax [4, 5]: 2 h
- AUC ([4]; Colon): 5950 ng·h/mL
- Tmax ([4]; Colon): 4 h
- AUC ([4]; Duodenum): 1510 ng·h/mL
- Tmax ([4]; Duodenum): 0.5 h
- AUC ([4]; Ileum): 24500 ng·h/mL
- Tmax ([4]; Ileum): 2 h
- AUC ([4]; Jejunum): 13300 ng·h/mL
- Tmax ([4]; Jejunum): 0.5 h
